Experimental data published in US20230183193A1, “4-DIFLUOROMETHYL BENZOYL AMIDES WITH HERBICIDAL ACTION” (BAYER CROPSCIENCE AKTIENGESELLSCHAFT, priority 2017, published 2023).

Key:
Abutilon theophrasti [1] = experiment: Pre-emergence herbicidal action, ABUTH; type: in vivo; conditions: for Herbicidal efficacy against ABUTH: Table K; for herbicidal activity ABUTH: scored visually after 3 weeks vs untreated controls
In short: (§1)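 Weed seeds were laid out in sandy loam and covered with soil, then the soil surface was treated with an aqueous suspension or emulsion of the formulated compound containing 0.2% wetting agent. Pots stayed in the greenhouse for 3 weeks before damage was rated visually against untreated plants.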

Viola tricolor [2] = experiment: Pre-emergence herbicidal action, VIOTR; type: in vivo; conditions: for Herbicidal efficacy against VIOTR: Table K; for herbicidal activity VIOTR: scored visually after 3 weeks vs untreated controls
In short: as §1

ECHCG [3] = experiment: Pre-emergence herbicidal action, ECHCG; type: in vivo, Echinochloa crus-galli
Stellaria media [4] = experiment: Pre-emergence herbicidal action, STEME; type: in vivo; conditions: dosage 320 g/ha, scored visually after 3 weeks vs untreated controls
In short: as §1

Viola tricolor [5] = experiment: Post-emergence herbicidal action, VIOTR; type: in vivo; conditions: for herbicidal activity VIOTR: 80 g/ha, Table D
In short: (§2)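 Greenhouse-grown plants were sprayed at the one-leaf stage, 2–3 weeks after sowing. Damage was scored visually after about 3 weeks against untreated controls, as % action (100% = dead, 0% = like control).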

Setaria viridis [6] = experiment: Post-emergence herbicidal action, SETVI; type: in vivo; conditions: for herbicidal activity SETVI: 80 g/ha, Table C
In short: as §2

Avena fatua [7] = experiment: Pre-emergence herbicidal action, AVEFA; type: in vivo; conditions: for herbicidal activity AVEFA: dosage 320 g/ha, scored visually after 3 weeks vs untreated controls
In short: as §1

Amaranthus retroflexus [8] = experiment: Pre-emergence herbicidal action, AMARE; type: in vivo; conditions: dosage 320 g/ha, scored visually after 3 weeks vs untreated controls
In short: as §1

Abutilon theophrasti [9] = experiment: Post-emergence herbicidal action, ABUTH; type: in vivo; conditions: 80 g/ha, Table D
In short: as §2

Cyperus serotinus = experiment: Pre-emergence herbicidal action, CYPES; type: in vivo; conditions: for herbicidal activity CYPES: dosage 320 g/ha, scored visually after 3 weeks vs untreated controls
In short: as §1

Stellaria media [10] = experiment: Post-emergence herbicidal action, STEME; type: in vivo; conditions: for Herbicidal activity STEME: 80 g/ha, Table D
In short: as §2

Pharbitis purpureum = experiment: Post-emergence herbicidal action, PHBPU; type: in vivo; conditions: 80 g/ha, Table D
In short: as §2

Amaranthus retroflexus [11] = experiment: Post-emergence herbicidal action, AMARE; type: in vivo; conditions: 80 g/ha, Table D
In short: as §2

Alopecurus myosuroides [12] = experiment: Post-emergence herbicidal action, ALOMY; type: in vivo; conditions: for herbicidal activity ALOMY: 80 g/ha, Table C
In short: as §2

Avena fatua [13] = experiment: Post-emergence herbicidal action, AVEFA; type: in vivo; conditions: for herbicidal activity AVEFA: 80 g/ha, Table C
In short: as §2

Polygonum convolvulus = experiment: Pre-emergence herbicidal action, POLCO; type: in vivo; conditions: Table K
Excerpt: 1. Pre-Emergence Herbicidal Action Against Harmful Plants Seeds of monocotyledonous and dicotyledonous weed plants and crop plants are laid out in sandy loam soil in wood-fiber pots and covered with soil. The compounds of the invention, formulated in the form of wettable powders (WP) or as emulsion concentrates (EC), are then applied to the surface of the covering soil in the form of an aqueous suspension or emulsion at a water application rate equating to […], with addition of 0.2% wetting agent. After the treatment, the pots are placed in a greenhouse and kept under good growth conditions for the trial plants. The damage to the test plants is scored visually after a test period of 3 weeks by comparison with untreated controls (herbicidal activity in percent (%): 100% activity=the plants have died, 0% activity=like control plants).
For comparison, the herbicidal activity of numerous compounds according to the invention was tested with the structurally closest compounds known from the documents WO 2011/035874, WO 2012/028579 and WO 2012/126932, by the pre- and post-emergence method.

Matricaria inodora = experiment: Pre-emergence herbicidal action, MATIN; type: in vivo; conditions: for Herbicidal efficacy against MATIN: Table K; for herbicidal activity MATIN: scored visually after 3 weeks vs untreated controls
In short: as §1

Alopecurus myosuroides [14] = experiment: Pre-emergence herbicidal action, ALOMY; type: in vivo; conditions: for herbicidal activity ALOMY: dosage 320 g/ha, scored visually after 3 weeks vs untreated controls
In short: as §1

Setaria viridis [15] = experiment: Pre-emergence herbicidal action, SETVI; type: in vivo; conditions: for herbicidal activity SETVI: dosage 320 g/ha, scored visually after 3 weeks vs untreated controls
In short: as §1

ECHCG [16] = experiment: Post-emergence herbicidal action, ECHCG; type: in vivo; conditions: 80 g/ha, Table C
In short: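 Weed and crop plants grown in sandy loam in the greenhouse, treated at the one-leaf stage 2–3 weeks after sowing. Damage scored visually after about 3 weeks vs untreated controls (0% = control, 100% = dead).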

SMILES | Herbicidal efficacy against ABUTH (Abutilon theophrasti [1]; dosage 80 g/ha) | herbicidal activity ABUTH (Abutilon theophrasti [1]; dosage 320 g/ha) [%] | Herbicidal efficacy against VIOTR (Viola tricolor [2]; dosage 80 g/ha) | herbicidal activity VIOTR (Viola tricolor [2]; dosage 320 g/ha) [%] | Herbicidal efficacy against ECHCG (ECHCG [3]; 80 g/ha) | Herbicidal activity STEME (Stellaria media [4]) [%] | herbicidal activity VIOTR (Viola tricolor [5]) [%] | herbicidal activity SETVI (Setaria viridis [6]) [%] | Herbicidal efficacy against AVEFA (Avena fatua [7]; 80 g/ha) | herbicidal activity AVEFA (Avena fatua [7]) [%] | herbicidal activity AMARE (Amaranthus retroflexus [8]) [%] | herbicidal activity ABUTH (Abutilon theophrasti [9]) [%] | Herbicidal efficacy against CYPES (Cyperus serotinus; 80 g/ha) | Herbicidal activity STEME (Stellaria media [10]) [%] | Herbicidal activity PHBPU (Pharbitis purpureum) [%] | herbicidal activity AMARE (Amaranthus retroflexus [11]) [%] | Herbicidal efficacy against POLCO (Polygonum convolvulus; dosage 80 g/ha) | herbicidal activity MATIN (Matricaria inodora; dosage 320 g/ha) [%] | herbicidal activity SETVI (Setaria viridis [15]) [%] | Herbicidal activity ECHCG (ECHCG [16]) [%] | further results
Cc1c(C(=O)Nc2ncnn2C)ccc(C(F)F)c1S(C)(=O)=O [Example 4-3] | 100 | 100 | 100 | 100 | 100 | 100 | 100 | 100 | 30 | 80 | 100 | 100 | 100 | 90 | 100 | 100 | 40 | 100 | 100 | 100 | Herbicidal efficacy against ABUTH (Abutilon theophrasti [1]; dosage 320 g/ha): 100; Herbicidal efficacy against VIOTR (Viola tricolor [2]; dosage 320 g/ha): 100; Herbicidal efficacy against ECHCG (ECHCG [3]; 320 g/ha): 100; Herbicidal efficacy against VIOTR (Viola tricolor [5]; 20 g/ha): 100; Herbicidal efficacy against SETVI (Setaria viridis [6]; 20 g/ha): 40; Herbicidal efficacy against AVEFA (Avena fatua [7]; 320 g/ha): 80; Herbicidal efficacy against CYPES (Cyperus serotinus; 320 g/ha): 100; herbicidal activity CYPES (Cyperus serotinus): 100%; Herbicidal efficacy against STEME (Stellaria media [10]; 20 g/ha): 60; Herbicidal efficacy against ALOMY (Alopecurus myosuroides [12]; 20 g/ha): 30; Herbicidal efficacy against AVEFA (Avena fatua [13]; 20 g/ha): 50; herbicidal activity AVEFA (Avena fatua [13]): 90%; Herbicidal efficacy against POLCO (Polygonum convolvulus; dosage 320 g/ha): 70; Herbicidal efficacy against MATIN (Matricaria inodora; dosage 80 g/ha): 100; Herbicidal efficacy against MATIN (Matricaria inodora; dosage 320 g/ha): 100; Herbicidal efficacy against ALOMY (Alopecurus myosuroides [14]; 80 g/ha): 60; Herbicidal efficacy against ALOMY (Alopecurus myosuroides [14]; 320 g/ha): 90; herbicidal activity ALOMY (Alopecurus myosuroides [14]): 90%; Herbicidal efficacy against SETVI (Setaria viridis [15]; 80 g/ha): 90; Herbicidal efficacy against SETVI (Setaria viridis [15]; 320 g/ha): 100
CSc1c(C(F)F)ccc(C(=O)Nc2nnnn2C)c1Cl [Example 1-49] | 100 | 100 | 100 | 100 | 100 | 90 | 100 | 90 | 80 | 100 | 100 | 90 | 70 | 100 | 90 | 80 | 50 | 100 | 100 | 80 | Herbicidal efficacy against ABUTH (Abutilon theophrasti [1]; dosage 20 g/ha): 70; Herbicidal efficacy against VIOTR (Viola tricolor [2]; dosage 20 g/ha): 100; Herbicidal efficacy against ECHCG (ECHCG [3]; 20 g/ha): 50; Herbicidal efficacy against VIOTR (Viola tricolor [5]; 5 g/ha): 100; Herbicidal efficacy against SETVI (Setaria viridis [6]; 5 g/ha): 80; Herbicidal efficacy against AVEFA (Avena fatua [7]; 20 g/ha): 50; Herbicidal efficacy against CYPES (Cyperus serotinus; 20 g/ha): 50; herbicidal activity CYPES (Cyperus serotinus): 90%; Herbicidal efficacy against STEME (Stellaria media [10]; 5 g/ha): 70; Herbicidal efficacy against ALOMY (Alopecurus myosuroides [12]; 5 g/ha): 60; herbicidal activity ALOMY (Alopecurus myosuroides [12]): 90%; Herbicidal efficacy against AVEFA (Avena fatua [13]; 5 g/ha): 50; herbicidal activity AVEFA (Avena fatua [13]): 100%; Herbicidal efficacy against MATIN (Matricaria inodora; dosage 20 g/ha): 80; Herbicidal efficacy against ALOMY (Alopecurus myosuroides [14]; 20 g/ha): 40; Herbicidal efficacy against ALOMY (Alopecurus myosuroides [14]; 80 g/ha): 90; herbicidal activity ALOMY (Alopecurus myosuroides [14]): 100%; Herbicidal efficacy against SETVI (Setaria viridis [15]; 20 g/ha): 90
CSc1c(C(F)F)ccc(C(=O)Nc2ncnn2C)c1C [Example 4-1, 4-(difluoromethyl)-2-methyl-3-(methylsulfanyl)-N-(1-methyl-1H-1,2,4-triazol-5-yl)benzamide] | 90 | 100 | 100 | 100 | 70 | 90 | 100 | 100 | 30 | 80 | 100 | 100 | 30 | 100 | 100 | 100 | 30 | 90 | 100 | 90 | Herbicidal efficacy against ABUTH (Abutilon theophrasti [1]; dosage 320 g/ha): 100; Herbicidal efficacy against VIOTR (Viola tricolor [2]; dosage 320 g/ha): 100; Herbicidal efficacy against ECHCG (ECHCG [3]; 320 g/ha): 100; Herbicidal efficacy against VIOTR (Viola tricolor [5]; 20 g/ha): 100; Herbicidal efficacy against SETVI (Setaria viridis [6]; 20 g/ha): 60; Herbicidal efficacy against AVEFA (Avena fatua [7]; 320 g/ha): 80; Herbicidal efficacy against CYPES (Cyperus serotinus; 320 g/ha): 50; Herbicidal efficacy against STEME (Stellaria media [10]; 20 g/ha): 80; Herbicidal efficacy against ALOMY (Alopecurus myosuroides [12]; 20 g/ha): 70; herbicidal activity ALOMY (Alopecurus myosuroides [12]): 80%; Herbicidal efficacy against AVEFA (Avena fatua [13]; 20 g/ha): 20; Herbicidal efficacy against POLCO (Polygonum convolvulus; dosage 320 g/ha): 30; Herbicidal efficacy against MATIN (Matricaria inodora; dosage 80 g/ha): 80; Herbicidal efficacy against MATIN (Matricaria inodora; dosage 320 g/ha): 90; Herbicidal efficacy against ALOMY (Alopecurus myosuroides [14]; 320 g/ha): 40; Herbicidal efficacy against SETVI (Setaria viridis [15]; 80 g/ha): 80; Herbicidal efficacy against SETVI (Setaria viridis [15]; 320 g/ha): 100
